We go through one molecule from patent US20100242125A1, “METHODS FOR CORRECTING MITOTIC SPINDLE DEFECTS AND OPTIMIZING PREIMPLANTATION EMBRYONIC DEVELOPMENTAL RATES ASSOCIATED WITH SOMATIC CELL NUCLEAR TRANSFER IN ANIMALS” (priority 2003, published 2010).

The test system of the assay is NHP oocytes (SCC-intact) and rhesus enucleated cytoplasts. As to the kind of experiment: Taxol-induced microtubule recruitment; immunocytochemistry of HSET, NuMA, microtubules and DNA. Format: cell-based, rhesus (nonhuman primate). To be noted: 10 μM paclitaxel. From the text: FIGS. 9A-9C show microtubule patterns (green) observed in rhesus cytoplast after enucleation (FIG. 9A) or following artificial activation at 24 (FIG. 9B) or at 48 hrs (FIG. 9C) post-ionomycin/DMAP. Following enucleation, no assembled cytoplasmic microtubules (FIG. 9A: green) are observed. After activation, abundant disarrayed microtubules (FIG. 9B: green) assemble in the DNA-less cytoplast. Rarely, a microtubule structure resembling a bipolar spindle (FIG. 9C: green) assembles in the cytoplasm. The insets of FIGS. 9A-9C show DNA imaging confirming successful removal of the SCC. […] Second meiotic chromosomes, are blue. FIGS. 9H-9J show a rhesus enucleated cytoplast treated for 30 minutes with 10 μM paclitaxel prior to fixation and detection of DNA (H, blue), microtubules (I, red), and HSET (J, green). The assembled cytoplasmic microtubule bundles are not labeled by HSET antibody. FIGS. 9A-9C and 9E are double-labeled images for microtubules (green) and DNA (blue). FIGS. 9D, 9F, and 9G are triple-labeled images for HSET (green), microtubules (red) and DNA (blue). FIGS. 9H-9J are single-labeled images for DNA (blue), microtubules (red), and HSET (green). Bars represent 10 μm.
FIGS. 10D and 10E show NuMA detection in the somatic cell nuclei of cumulus (FIG. 10D: green) and rhesus fibroblast cells (FIG. 10E: green; red, microtubules). […] NuMA (green) is strongly detected in the decondensed male pronucleus (MPn), but diminished in the unsuccessful fibroblast cell (arrowhead) attached at the oocyte surface. In the upper inset of FIG. 10F, red depicts microtubules while blue depicts DNA. In the lower inset of FIG. 10F, the sperm centrosome organizes a microtubule astral array (arrow) near the decondensed male pronucleus. […] NuMA (green) is found at both poles on the intact metaphase-II spindle (red) with aligned chromosomes (blue) as well as at the base of the condensed sperm head (blue, arrow). However, NuMA (green) is missing from the disorganized multipolar NT spindle microtubules (red) assembling around the scattered somatic cell chromosomes (blue). […] NuMA (green) is detected at the poles in both the NT spindle (lower arrow; red, microtubules; blue, DNA) and the intact second meiotic metaphase spindle (upper arrow; red, microtubules; blue, DNA). […]
Imaging. […] NuMA, HSET (human spleen embryonic tissue and testis), and Eg5 were detected using rabbit polyclonal antibodies as described in Mountain, 147 J. CELL BIOL. […] Primary antibodies were detected using Alexa secondary antibodies (Alexa-546 goat anti-mouse IgG; Alexa-488 goat anti-rabbit IgG; Molecular Probes, Eugene, Oreg.). […] DNA was fluorescently detected with 10 μg/ml Hoechst 33342 (Sigma) and 1 μM Toto-3 (Molecular Probes) added to the penultimate rinse. […]

Regarding `CC(=O)O[C@H]1C(=O)[C@@]2(C)[C@H]([C@H](OC(=O)c3ccccc3)[C@]3(O)C[C@H](OC(=O)[C@H](O)[C@@H](NC(=O)c4ccccc4)c4ccccc4)C(C)=C1C3(C)C)[C@]1(OC(C)=O)CO[C@@H]1C[C@@H]2O` [Paclitaxel], for the setting “SCC-intact mature NHP oocyte, 20 minutes (FIG. 10C)”, the NuMA localization entry is recorded as “NuMA localization at disorganized spindle poles”. Besides, the cytoplasmic microtubule assembly entry (enucleated cytoplast lacking the SCC, 30 minutes (FIG. 9I)) is reported as “numerous cytoplasmic microtubule bundles assembled in the cytoplasm”. Further, the “HSET detection at cytoplasmic microtubule bundles” value (enucleated cytoplast lacking the SCC, 30 minutes (FIG. 9J)) is “without HSET protein detection”. The HSET protein localization entry (intact mature oocyte, 30 minutes (FIG. 9G)) is on record as “enhanced HSET protein only at the second meiotic spindle poles”.
